Reference: patent publication US11185527B2, “Methods and compositions relating to steroid hormone receptor-dependent cancers” (Wayne State University, priority 2017, dated 2021)

Legend:
Experiment in all cases: Cell monolayer growth assay (MTT)
LNCaP cells = type: cell-based; details: enzalutamide up to 20 uM
Protocol: (§1) Twenty four hours after plating the LNCaP cells, they were treated with the indicated concentrations of KCI807 (FIG. 4E) or with the indicated concentrations of enzalutamide (ENZ) (FIG. 4F). […] Cells were trypsinized and 3000-4000 cells/well were seeded in 96-well plates coated with poly-D-lysine. The cells were seeded in phenol red-free medium supplemented with 10% FBS, 100 units/ml penicillin, 100 μg/ml streptomycin, 2 mM L-glutamine mixture and sodium pyruvate (1 mM) for LNCaP cells and phenol red-free medium supplemented with 10% FBS, 100 units/ml penicillin, 100 μg/ml streptomycin and 2 mM L-glutamine mixture for VCaP, 22Rv1, DU145, HeLa, HEK293 and H1650 cells. The cells were grown at 37° C. in 5% CO2. Twenty four hours after seeding in the 96-well plates, the cells were treated with the indicated concentration of KCI807 or DMSO (vehicle). The cells were re-treated on Day 3 by removing half the volume of medium and replacing it with fresh treated medium. Cell viability was determined using the MTT assay from day zero until day five. MTT (10 μL, 5 mg/mL) was added to each well and incubated for 2h at 37° C. The formazan crystal sediments were dissolved in 100 μL of DMSO, and the absorbance at 570 nm was measured using the BioTek Synergy 2 Microplate Reader (BioTek, Winooski, Vt.). The assay was conducted in sextuplicate wells and values were normalized to day zero.

VCaP cells = type: cell-based
Protocol: as §1, with “the VCaP” for “the LNCaP”, “(FIG. 4G)” for “(FIG. 4E)”, “(FIG. 4H).” for “(FIG. 4F).”

[1] = system: DU145 (prostate cancer cells), AR-negative; type: cell-based
Protocol: FIG. 12A is a graph showing the effect of KCI807 on in vitro growth of AR-negative cell line Du145 cells measured by the MTT assay. All values were plotted relative to the Day zero value.
FIG. 16E is a graph showing the effect of 5′-Fluoro-5,3′-Dihydroxyflavone at various concentrations on growth of DU145 cells.
Cells were trypsinized and 3000-4000 cells/well were seeded in 96-well plates coated with poly-D-lysine. The cells were seeded in phenol red-free medium supplemented with 10% FBS, 100 units/ml penicillin, 100 μg/ml streptomycin, 2 mM L-glutamine mixture and sodium pyruvate (1 mM) for LNCaP cells and phenol red-free medium supplemented with 10% FBS, 100 units/ml penicillin, 100 μg/ml streptomycin and 2 mM L-glutamine mixture for VCaP, 22Rv1, DU145, HeLa, HEK293 and H1650 cells. The cells were grown at 37° C. in 5% CO2. Twenty four hours after seeding in the 96-well plates, the cells were treated with the indicated concentration of KCI807 or DMSO (vehicle). The cells were re-treated on Day 3 by removing half the volume of medium and replacing it with fresh treated medium. Cell viability was determined using the MTT assay from day zero until day five. […] The formazan crystal sediments were dissolved in 100 μL of DMSO, and the absorbance at 570 nm was measured using the BioTek Synergy 2 Microplate Reader (BioTek, Winooski, Vt.). […]

22Rv1 cells = type: cell-based, human; details: enzalutamide up to 20 uM
Protocol: Twenty four hours after plating the 22Rv1 cells, they were treated with the indicated concentrations of KCI807 (FIG. 4C) or with the indicated concentrations of enzalutamide (ENZ) (FIG. 4D).
Twenty four hours after plating the cells, they were treated with the indicated concentrations of the compound.
FIG. 16D is a graph showing the effect of 5′-Fluoro-5,3′-Dihydroxyflavone at various concentrations on growth of 22Rv1 cells.
Cells were trypsinized and 3000-4000 cells/well were seeded in 96-well plates coated with poly-D-lysine. The cells were seeded in phenol red-free medium supplemented with 10% FBS, 100 units/ml penicillin, 100 μg/ml streptomycin, 2 mM L-glutamine mixture and sodium pyruvate (1 mM) for LNCaP cells and phenol red-free medium supplemented with 10% FBS, 100 units/ml penicillin, 100 μg/ml streptomycin and 2 mM L-glutamine mixture for VCaP, 22Rv1, DU145, HeLa, HEK293 and H1650 cells. The cells were grown at 37° C. in 5% CO2. Twenty four hours after seeding in the 96-well plates, the cells were treated with the indicated concentration of KCI807 or DMSO (vehicle). The cells were re-treated on Day 3 by removing half the volume of medium and replacing it with fresh treated medium. Cell viability was determined using the MTT assay from day zero until day five. MTT (10 μL, 5 mg/mL) was added to each well and incubated for 2h at 37° C. The formazan crystal sediments were dissolved in 100 μL of DMSO, and the absorbance at 570 nm was measured using the BioTek Synergy 2 Microplate Reader (BioTek, Winooski, Vt.). The assay was conducted in sextuplicate wells and values were normalized to day zero.

| Structure (SMILES) | growth inhibition of LNCaP cells (LNCaP cells) | growth inhibition of VCaP cells (VCaP cells) | growth of DU145 cells [1] | growth inhibition of 22Rv1 cells (22Rv1 cells) |
| --- | --- | --- | --- | --- |
| O=c1cc(-c2cccc(O)c2)oc2cccc(O)c12 [KCI807, 5,3′-dihydroxyflavone] | completely inhibited cell growth | most sensitive | did not appreciably affect the growth | completely inhibited cell growth |
| CNC(=O)c1ccc(N2C(=S)N(c3ccc(C#N)c(C(F)(F)F)c3)C(=O)C2(C)C)cc1F [enzalutamide] | only showed partial effects | most sensitive | – | only showed partial effects |
| O=c1cc(-c2cc(O)cc(F)c2)oc2cccc(O)c12 [5′-fluoro-5,3′-dihydroxyflavone] | inhibited growth | inhibited growth | did not inhibit growth | inhibited growth |
